Reference: US8664217B2, “Benzodiazepine compound and pharmaceutical composition” (Otsuka Pharmaceutical Co., Ltd., priority 2008, dated 2014)
Structures can show the parent of a compound that is named as a salt. Where two headings read alike, the source gives them in different places.

Molecular target: T1, human GIRK1/4 channels (Homo sapiens, UniProt P48544+P48549)
T1 construct: Full-length human GIRK1 cDNA was cloned from HuH cell- and HeLa cell-derived cDNA libraries; Full-length GIRK4 cDNA was amplified from a human heart cDNA library; expressed in transfected cells; host or cells: FLP-IN-CHO cells (Invitrogen)
T1 sequence (P48549 1-501): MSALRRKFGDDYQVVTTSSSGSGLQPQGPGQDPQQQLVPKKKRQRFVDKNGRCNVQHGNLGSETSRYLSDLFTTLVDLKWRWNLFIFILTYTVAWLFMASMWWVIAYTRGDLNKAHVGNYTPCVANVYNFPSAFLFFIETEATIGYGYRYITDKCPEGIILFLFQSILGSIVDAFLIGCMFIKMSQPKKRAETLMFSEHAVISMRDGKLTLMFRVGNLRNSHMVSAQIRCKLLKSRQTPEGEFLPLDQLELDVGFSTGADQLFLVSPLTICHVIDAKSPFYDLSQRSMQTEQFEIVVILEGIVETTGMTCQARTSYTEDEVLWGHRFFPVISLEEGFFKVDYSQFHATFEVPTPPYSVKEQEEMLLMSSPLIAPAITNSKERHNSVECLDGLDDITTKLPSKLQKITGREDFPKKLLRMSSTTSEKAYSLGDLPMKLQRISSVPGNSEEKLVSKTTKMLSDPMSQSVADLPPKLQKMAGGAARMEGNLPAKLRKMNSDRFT
T1 sequence (P48544 1-419): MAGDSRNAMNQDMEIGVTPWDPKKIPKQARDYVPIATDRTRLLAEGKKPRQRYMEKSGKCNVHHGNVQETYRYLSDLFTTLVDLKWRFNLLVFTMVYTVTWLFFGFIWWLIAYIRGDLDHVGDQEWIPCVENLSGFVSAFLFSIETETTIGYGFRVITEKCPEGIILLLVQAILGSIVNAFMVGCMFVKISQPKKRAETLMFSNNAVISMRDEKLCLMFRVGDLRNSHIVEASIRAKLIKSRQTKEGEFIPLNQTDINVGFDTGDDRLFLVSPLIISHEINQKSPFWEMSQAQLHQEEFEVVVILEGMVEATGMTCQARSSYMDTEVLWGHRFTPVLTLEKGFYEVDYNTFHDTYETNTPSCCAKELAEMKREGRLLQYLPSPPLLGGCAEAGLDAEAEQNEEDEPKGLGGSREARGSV
Test: Measurement of human GIRK1/4 channel current by whole-cell patch clamp method (human GIRK1/4-expressing CHO cell line)
Assay type: cell-based
Description: (2) Production of CHO Cell Line Expressing Human GIRK1/4
CHO cell lines stably expressing human GIRK1/4 channels were prepared in the following manner.
Full-length human GIRK1 cDNA was cloned from HuH cell- and HeLa cell-derived cDNA libraries. Full-length GIRK4 cDNA was amplified from a human heart cDNA library (produced by Clontech Laboratories, Inc.) by PCR using synthetic primers shown in Table 1, and cloned into the Eco-RI restriction enzyme site of pCR-Blunt (produced by Invitrogen Corporation) or into the HincII site of pUC118 (produced by Takara Bio, Inc.).
The obtained human GIRK1 and GIRK4 cDNA sequences correspond to known sequences (NCBI database: GIRK1 (NM_002239) and GIRK4 (NM_000890) respectively). The obtained GIRK1 and GIRK4 cDNA sequences were cloned into the Eco-RI restriction enzyme site of pCR-Blunt (available from Invitrogen Corporation) or into the HincII site of pUC118 (available from Takara Bio, Inc.). A GIRK4 expression vector was constructed by insertion into the BamHI-XhoI site of pcDNA5/FRT. A GIRK1 expression vector was constructed by insertion into the KpnI-XhoI site of pcDNA3.1(+) or pCAG_neo. FLP-IN-CHO cells (produced by Invitrogen Corporation) were transfected with human GIRK1 and GIRK4 expression vectors by using Lipofectamine 2000 (produced by Invitrogen Corporation) according to the protocol enclosed with the reagent or using an electronic induction method (“Nucleofector Kit-T”, produced by Amaxa). First, the cells transfected with the GIRK4 expression vector were cultured in a 10% serum-containing F12 medium (produced by Sigma) supplemented with 600 μg/ml of hygromycin in an incubator with 5% carbon dioxide at 37° C. Then the cells expressing GIRK4 were transfected with the GIRK1 expression vector and were cultured in 10% serum-containing F12 medium supplemented with 350 μg/ml of G418 and 600 μg/ml of hygromycin in an incubator with 5% carbon dioxide at 37° C. to select GIRK1/4 expressing cell lines. Cell populations whose growth was observed after about 2 weeks were isolated using cloning rings, and the obtained single colonies were proliferated. RNA was extracted from single colonies, and single-stranded cDNA was synthesized by a cDNA synthesis kit (produced by Invitrogen Corporation), and the amount of expression was quantified at the mRNA level by real-time PCR (Applied Biosystems, Ltd.). Finally, the expressed current was analyzed by patch clamp method described below. The cell lines expressing a current of 500 pA or more per cell were selected as channel-expressing cell lines for activity measurement by patch clamping method.
(4) Measurement of Ion Channel Current by Patch Clamp Method (Human GIRK1/4-Expressing CHO-K1 Cell Line)
An experiment was carried out using a patch clamp setup at room temperature (20 to 26° C.). A perfusion chamber having a diameter of 20 mm (flow rate: about 5 ml/min) was mounted on the stage of a phase-contrast inverted microscope (produced by Nikon Corporation) placed on a vibration isolation table. A poly-L-lysine (produced by Sigma)-coated coverslip (diameter: 15 mm, produced by Matsunami Glass Ind., Ltd.) on which human GIRK1/4-expressing cells were cultured was placed in the perfusion chamber.
Hyperpolarizing stimulation pulses were applied and ionic current was recorded using a patch clamp amplifier (EPC-7 or EPC-7 PLUS, manufactured by HEKA) and a personal computer (manufactured by IBM Corp.) in which software for data acquisition and analysis of ion channel current (PULSE 8.77, manufactured by HEKA) was installed. The current was measured in the whole-cell configuration of the patch-clamp technique. The tip (resistance: 2 to 4 MΩ) of a borosilicate glass pipette (produced by Sutter Instrument Co.) was gently placed on the cell membrane by using a three-dimensional mechanical micromanipulator (produced by Shoshin EM Corporation). […] Subsequently, stronger suction was applied to break the cell membrane. […]

[1] = whole-cell patch clamp, human GIRK1/4-expressing CHO cells, step end current at −120 mV, test compound 0.1, 1, 10 μM, read-out: GIRK¼ IC50

Structure (SMILES)	IC50 [1]	IC50
CCN1C(=O)C(C)(C)C(=O)N(C)c2cc(OCCCN(CCc3cccnc3)Cc3ccncc3)ccc21 [Example 8, 1-ethyl-3,3,5-trimethyl-7-{3-[(2-pyridin-3-ylethyl)pyridin-4-ylmethylamino]propoxy}-1,5-dihydrobenzo[b][1,4]diazepine-2,4-dione trihydrochloride]	930 nM	–
CCCN1C(=O)C(C)(C)C(=O)N(C)c2cc(OCCCN(CCc3cccnc3)Cc3ccncc3)ccc21 [Example 10, 3,3,5-trimethyl-1-propyl-7-{3-[(2-pyridin-3-ylethyl)pyridin-4-ylmethylamino]propoxy}-1,5-dihydrobenzo[b][1,4]diazepine-2,4-dione trihydrochloride]	3600 nM	–
CCN1C(=O)C(C)(C)C(=O)N(CC)c2cc(OCCCN(CCc3cccnc3)Cc3ccncc3)ccc21 [Example 14, 1,5-diethyl-3,3-dimethyl-7-{3-[(2-pyridin-3-ylethyl)pyridin-4-ylmethylamino]propoxy}-1,5-dihydrobenzo[b][1,4]diazepine-2,4-dione trihydrochloride]	720 nM	–
CN1C(=O)C(C)(C)C(=O)N(C)c2cc(OCCCN(CCc3cccnc3)Cc3ccncc3)ccc21 [Example 19, 1,3,3,5-tetramethyl-7-{3-[(2-pyridin-3-ylethyl)pyridin-4-ylmethylamino]propoxy}-1,5-dihydrobenzo[b][1,4]diazepine-2,4-dione trihydrochloride]	1400 nM	–
CCN1C(=O)C(C)(C)C(=O)N(C)c2cc(OCCCN(CCn3ccc4ccccc4c3=O)Cc3ccncc3)ccc21 [Example 23, 1-ethyl-3,3,5-trimethyl-7-(3-{[2-(1-oxo-1H-isoquinolin-2-yl)ethyl]pyridin-4-ylmethylamino}propoxy)-1,5-dihydrobenzo[b][1,4]diazepine-2,4-dione dihydrochloride]	250 nM	–
CCN1C(=O)C(C)(C)C(=O)N(C)c2cc(OCCCN(CCn3ccc4ccoc4c3=O)Cc3ccncc3)ccc21 [Example 31, 1-ethyl-3,3,5-trimethyl-7-(3-{[2-(7-oxo-7H-furo[2,3-c]pyridin-6-yl)ethyl]pyridin-4-ylmethylamino}propoxy)-1,5-dihydrobenzo[b][1,4]diazepine-2,4-dione dihydrochloride]	2900 nM	–
CN(CCN(CCCOc1ccc2c(c1)N(C)C(=O)C(C)(C)C(=O)N2C)Cc1ccncc1)C(=O)c1ccccc1 [Example 45, N-methyl-N-(2-{pyridin-4-ylmethyl-[3-(1,3,3,5-tetramethyl-2,4-dioxo-2,3,4,5-tetrahydro-1H-benzo[b][1,4]diazepin-7-yloxy)propyl]amino}ethyl)benzamide dihydrochloride]	2150 nM	–
Cc1ccccc1CN(CCCOc1ccc2c(c1)N(C)C(=O)C(C)(C)C(=O)N2C)CCc1cccnc1 [Example 50, 1,3,3,5-tetramethyl-7-{3-[(2-methylbenzyl)-(2-pyridin-3-ylethyl)amino]propoxy}-1,5-dihydrobenzo[b][1,4]diazepine-2,4-dione dihydrochloride]	460 nM	–
CN1C(=O)C(C)(C)C(=O)N(C)c2cc(OCCCN(CCc3cccnc3)Cc3ccnc4ccccc34)ccc21 [Example 51, 1,3,3,5-tetramethyl-7-{3-[(2-pyridin-3-ylethyl)-(quinolin-4-ylmethyl)amino]propoxy}-1,5-dihydrobenzo[b][1,4]diazepine-2,4-dione trihydrochloride]	1500 nM	–
CCN1C(=O)C(C)(C)C(=O)N(C)c2cc(OCCCN(CCc3cccnc3)Cc3ccncc3C)ccc21 [Example 54, 1-ethyl-3,3,5-trimethyl-7-{3-[(3-methylpyridin-4-ylmethyl)-(2-pyridin-3-ylethyl)amino]propoxy}-1,5-dihydrobenzo[b][1,4]diazepine-2,4-dione trihydrochloride]	970 nM	–
CCN1C(=O)C(C)(C)C(=O)N(C)c2cc(OCCCN(CCn3c(=O)ccc4ccccc43)Cc3ccncc3)ccc21 [Example 63, 1-ethyl-3,3,5-trimethyl-7-(3-{[2-(2-oxo-2H-quinolin-1-yl)ethyl]pyridin-4-ylmethylamino}propoxy)-1,5-dihydrobenzo[b][1,4]diazepine-2,4-dione]	920 nM	–
CCN1C(=O)C(C)(C)C(=O)N(C)c2cc(OCCCN(CCn3ccc4ccsc4c3=O)Cc3ccncc3)ccc21 [Example 68, 1-ethyl-3,3,5-trimethyl-7-(3-{[2-(7-oxo-7H-thieno[2,3-c]pyridin-6-yl)ethyl]pyridin-4-ylmethylamino}propoxy)-1,5-dihydrobenzo[b][1,4]diazepine-2,4-dione]	5100 nM	–
CCN1C(=O)C(C)(C)C(=O)N(C)c2cc(OCCCN(CCn3ccc4ccccc4c3=O)Cc3ccc(C#N)cc3)ccc21 [Example 85]	150 nM	–
CCN1C(=O)C(C)(C)C(=O)N(C)c2cc(OCCCN(CCn3ccc4ccccc4c3=O)Cc3ccsc3)ccc21 [Example 125]	–	91 nM
CCN1C(=O)C(C)(C)C(=O)N(C)c2cc(OCCCN(CCn3ccc4ccccc4c3=O)Cc3ccco3)ccc21 [Example 132]	270 nM	–
CCN1C(=O)C(C)(C)C(=O)N(C)c2cc(OCCCN(CCc3cccnc3)Cc3ccccc3)ccc21 [Example 200]	590 nM	–
CCN1C(=O)C(C)(C)C(=O)N(C)c2cc(OCCCN(CCc3cccnc3)Cc3cccc(C#N)c3)ccc21 [Example 229]	690 nM	–
CCN1C(=O)C(C)(C)C(=O)N(C)c2cc(OCCCN(CCc3cccnc3)Cc3ccccc3-c3cccnc3)ccc21 [Example 242]	220 nM	–
CCN1C(=O)C(C)(C)C(=O)N(C)c2cc(OCCCN(CCn3ccc4ccoc4c3=O)Cc3ccc(C#N)cc3)ccc21 [Example 380]	490 nM	–
CCN1C(=O)C(C)(C)C(=O)N(C)c2cc(OCCCN(CCn3ccc4ccoc4c3=O)Cc3ccc(C(F)(F)F)cc3)ccc21 [Example 395]	330 nM	–
CCN1C(=O)C(C)(C)C(=O)N(C)c2cc(OCCCN(CCn3ccc4ccoc4c3=O)Cc3ccccc3C)ccc21 [Example 398]	490 nM	–
CCN1C(=O)C(C)(C)C(=O)N(C)c2cc(OCCCN(CCn3ccc4ccoc4c3=O)Cc3cccs3)ccc21 [Example 417]	980 nM	–
